The target in one experiment is T1, Aβ1-42 (Homo sapiens, UniProt P05067).
T1 construct: Amyloid β peptide (Aβ1-42) was purchased from GeneCust as a lyophilised powder; purchased GeneCust
As to the kind of experiment: Inhibition of Cu2+-induced Aβ1-42 aggregation, thioflavin T fluorescence. To be noted: inhibitor 40 µM, copper 40 µM, read-out: Inhib. Aβ Aggreg. Cu2+-Induced. The format is biochemical. The protocol: The anti-amyloidogenic activity of all the compounds was also evaluated in vitro, in the absence and in presence of Cu(II), by measuring the fluorescence emission of Thioflavin T (ThT). […] The Aβ self-aggregation inhibitory activity shown by all compounds is higher than that of parent compound TA, with the exception of compound 2 (probably due to solubility issues at the experimental conditions of the assays). The fact that the reference value previously reported by us for TA (50 ± 8%) was obtained for quite different conditions, including a much higher inhibitor concentration (100 μM instead of 40 μM) is noteworthy. […] This may be due to different electronic contributions between the ketone and the ester functions. Therefore, the ester derivatives seem to be better chelators compared to TA.
The spectrofluorimetric method, based on the fluorescence emission of thioflavin T (ThT), was used to study the Aβ1-42 aggregation inhibition. Firstly, Aβ1-42 was dissolved in HFIP (1,1,1,3,3,3-Hexafluoro-2-propanol) and kept overnight at room temperature in order to obtain a dry film. Then, the film was re-dissolved in CH3CN-Na2CO3 (300μM)/NaOH (250μM) (48.3/48.3/3.4 mL v/v/v) and then phosphate buffer (pH = 8) was added. The ligand solutions were prepared with MeOH (1mg/mL) and further with phosphate buffer. For the inhibition studies of copper-induced Aβ aggregation, a solution of CuCl2 240 μM was used. As a control, a solution of 30 μL of phosphate buffer and 30 μL of Aβ1-42 was used to observe the aggregation without any inhibition, while the ligand assay solutions were composed of 20 μL of phosphate buffer, 30 μL of Aβ1-42 and 10 μL of ligand. The Cu-induced aggregation studies were similarly conducted, adding 10 μL of CuCl2 to induce the fibril aggregation. Each experiment was composed of an assay and a blank sample, where the blank sample lacks Aβ1-42, to monitor the effect of the compounds on the fluorescence emission. The samples were left to incubate in a CERTOMAT WR water bath for 24 h at 37 °C with shaking. After 24 h, a Glycine-NaOH buffer (pH = 8.5) containing ThT were added to each sample in a microplate. The fluorescence signal was monitored at 446 nm (λexc) and 486 nm (λem) with a Varian Cary Eclipse fluorimeter. Amyloid β peptide (Aβ1-42) was purchased from GeneCust as a lyophilised powder and stored at −20 °C [12, 13, 14].

Experiment [1] concerns the target AChE of electroforus electricus (electric eel) (Electrophorus electricus, UniProt O42275). Briefly: biochemical. The note with it: AChE from electric eel; mean of three independent experiments ± SEM; read-out: eeAChEi IC50. The protocol:
All new racemic compounds were tested as acetylcholinesterase inhibitors via an in vitro assay, following a modification of Ellman’s method in three independent experiments, using tacrine as a reference compound. […] Enzyme inhibition assays were performed using an adaptation of Ellman’s method. The readings were made in a spectrophotometer Perkin-Elmer Lambda 35 UV-Vis. Enzyme activity is measured by following the increase in yellow color produced from thiocholine when it reacts with dithiobisnitrobenzoate ion (DTNB). DTNB solution was obtained dissolving the reagent in HEPES buffer with salts, namely NaCl (50 mM) and MgCl2 (20 mM), obtaining a 3 mM solution. The enzyme AChE of electroforus electricus (electric eel) stock (500 U) was dissolved in TRIS 50 mM, pH 8.0, being posteriorly diluted to assay concentrations (5 U), obtaining an aliquot of 1 mL. The enzyme substrate used was acetylthiocholine iodide (AThCh, 16 mM), which was prepared with deionized water. The compounds tested were diluted in MeOH or DMSO (1 mg/mL, 2–7 × 10^−3 M), with further dilution, and five different concentrations were used for each compound, obtaining different percentages of AChE inhibition. The assay consists in the addition of HEPES (50 mM, pH = 8), inhibitor, AChE and MeOH in a 1 mL cuvette. The mixture was left to incubate for 15 min and, after that, AThCh and DTNB were added. The enzymatic reaction was followed through the measurements of absorbencies at 405 nm (Perkin Elmer Lambda 35 spectrophotometer equipped with a temperature programmer PTP 1þ1 Peltier System, using thermostated (T = 25.0 ± 0.1 °C) 1 cm path length cells) during 5 min. A blank solution containing all the components except the enzyme, that was substituted for equal volume of HEPES, was used. A control reaction was used using MeOH instead of the new compounds and was considered the reaction corresponding to 100% enzymatic activity. Each assay was performed in quintupled.

T1 sequence (P05067 672-713 limits assumed): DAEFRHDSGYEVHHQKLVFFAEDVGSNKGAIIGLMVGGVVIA
Chain of AChE of electroforus electricus (electric eel) (O42275 24-633): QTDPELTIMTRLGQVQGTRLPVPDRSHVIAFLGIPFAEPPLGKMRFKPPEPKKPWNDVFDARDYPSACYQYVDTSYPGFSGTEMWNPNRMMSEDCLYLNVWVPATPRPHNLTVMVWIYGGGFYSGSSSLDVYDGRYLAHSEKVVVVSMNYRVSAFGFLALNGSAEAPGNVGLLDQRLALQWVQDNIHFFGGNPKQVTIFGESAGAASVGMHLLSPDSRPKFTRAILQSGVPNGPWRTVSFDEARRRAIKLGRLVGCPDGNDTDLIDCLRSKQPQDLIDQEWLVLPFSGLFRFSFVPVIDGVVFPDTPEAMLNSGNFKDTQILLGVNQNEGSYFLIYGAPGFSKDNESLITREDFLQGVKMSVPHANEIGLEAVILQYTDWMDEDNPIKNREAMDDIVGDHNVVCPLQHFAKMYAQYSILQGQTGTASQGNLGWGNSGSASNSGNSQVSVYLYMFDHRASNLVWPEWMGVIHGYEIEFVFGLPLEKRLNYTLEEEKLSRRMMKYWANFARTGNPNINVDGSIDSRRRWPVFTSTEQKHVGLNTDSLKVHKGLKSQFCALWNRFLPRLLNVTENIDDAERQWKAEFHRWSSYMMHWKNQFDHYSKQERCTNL

Turning to `CCOC(=O)C1=C(O)C(C(C)C)NC1=O` (stereo not shown) [Compound 1, Ethyl 4-hydroxy-5-isopropyl-2-oxo-2,5-dihydro-1H-pyrrole-3-carboxylate], the inhibition at 40 µM at Aβ1-42 amounted to 36.6%. In addition, the IC50 in experiment [1] came out at 42 ± 3 µM.
For `CCOC(=O)C1=C(O)C(Cc2ccccc2)NC1=O` (stereo not shown) [Compound 2, Ethyl 5-benzyl-4-hydroxy-2-oxo-2,5-dihydro-1H-pyrrole-3-carboxylate], in that order: 28.2% and 57 ± 4 µM.

Source of the values: PMC7830597, “Derivatives of Tenuazonic Acid as Potential New Multi-Target Anti-Alzheimer’s Disease Agents” (Biomolecules, 2021).
